From patent US8008487B2, “Substituted thieno[2,3-D]pyrimidines as fungicides” (priority 2004, dated 2011)

How the values were obtained:
[1] = test system: Phytophthora infestans; assay: whole plant or invertebrate; format: in vivo; conditions: Phytophthora infestans, in Solanum lycopersicum, foliar, 24 h, read-out: PHYTIN percent control of disease, 200 ppm on foliage, tomato, one-day protectant test
[2] = test system: Erysiphe graminis f. sp. tritici; assay: Powdery Mildew of Wheat (ERYSGT), whole-plant fungicide test; format: in vivo; conditions: Blumeria graminis, 24 h, one-day protectant test, read-out: ERYSGT percent control of disease; for pest or weed control at 200 ppm: foliar, 200 ppm on foliage
[3] = test system: Cochliobolus sativus; assay: Spot Blotch of Wheat (COCHSA), whole-plant fungicide test; format: in vivo; conditions: Bipolaris sorokiniana, 24 h, one-day protectant test, read-out: COCHSA percent control of disease; for pest or weed control at 200 ppm: foliar, 200 ppm on foliage
In short: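 Percent control is derived from disease severity relative to untreated inoculated plants, scored 4–28 days later. Spore inoculation followed foliar spraying by one day (protectant) or preceded it by two days (curative); plants kept humid 1-2 days before greenhouse. Spray dose was 200 ppm, occasionally 100, 75 or 8.3 ppm, in acetone/Triton X100 water.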

[4] = test system: Leptosphaeria nodorum; assay: Glume Blotch of Wheat (LEPTNO), whole-plant fungicide test; format: in vivo; conditions: Parastagonospora nodorum, foliar, 24 h, 200 ppm on foliage, one-day protectant test, read-out: LEPTNO percent control of disease
[5] = test system: Magnaporthe grisea; assay: whole plant or invertebrate; format: in vivo; conditions: for pest or weed control at 200 ppm: Pyricularia oryzae, in Oryza sativa, foliar, 24 h, read-out: PYRIOR percent control of disease, 200 ppm on foliage, rice, one-day protectant test
[6] = test system: Erysiphe cichoracaerum; assay: Cucumber Powdery Mildew (ERYSCI), whole-plant fungicide test; format: in vivo; conditions: 200 ppm on foliage, one-day protectant test; for pest or weed control at 200 ppm: Erysiphe, foliar, 24 h, read-out: ERYSCI percent control of disease
[7] = test system: Septoria tritici; assay: Speckled Leaf Blotch of Wheat (SEPTTR), whole-plant fungicide test; format: in vivo; conditions: Zymoseptoria tritici, 24 h, one-day protectant test, read-out: SEPTTR percent control of disease; for pest or weed control at 200 ppm: foliar, 200 ppm on foliage
[8] = test system: Puccinia recondita tritici; assay: Leaf Rust of Wheat (PUCCRT), whole-plant fungicide test; format: in vivo; conditions: 200 ppm on foliage, one-day protectant test; for pest or weed control at 200 ppm: Puccinia recondita, foliar, 24 h, read-out: PUCCRT percent control of disease
[9] = test system: Colletotricum lagenarium; assay: Cucumber Anthracnose (COLLLA), whole-plant fungicide test; format: in vivo; conditions: Cucumis sativus, foliar, 24 h, 200 ppm on foliage, one-day protectant test, read-out: COLLLA percent control of disease

SMILES | pest or weed control at 200 ppm [1] [%] | pest or weed control at 200 ppm [2] [%] | pest or weed control at 200 ppm [3] [%] | pest or weed control at 200 ppm [4] [%] | melting point [°C] | pest or weed control at 200 ppm [5] [%] | pest or weed control at 200 ppm [6] [%] | pest or weed control at 200 ppm [7] [%] | pest or weed control at 200 ppm [8] [%] | pest or weed control at 200 ppm [9] [%] | PYRIOR percent control of disease ([5]; 200 ppm on foliage, rice, one-day protectant test) | ERYSCI percent control of disease [6] | PUCCRT percent control of disease [8] | pest or weed control at 100 ppm ([2]; 100 ppm (footnote a)) [%] | pest or weed control at 100 ppm ([3]; 100 ppm (footnote a)) [%] | pest or weed control at 100 ppm ([7]; 100 ppm (footnote a)) [%]
OCC(Cc1ccccc1)Nc1ncnc2scc(Cl)c12 (centres unmarked) [Compound 31] | 80 to 100 | 0 to 49 | 0 to 49 | 0 to 49 | 104 to 105 | 80 to 100 | 80 to 100 | 0 to 49 | 80 to 100 | 0 to 49 |  |  |  |  |  | 
CCOC(=O)c1sc2ncnc(NC(C)c3ccc(OC)cc3)c2c1O (centres unmarked) [Compound 52, 5-Hydroxy-4-[1-(4-methoxyphenyl)ethylamino]thieno[2,3-d]pyrimidine-6-carboxylic Acid Ethyl Ester] | 0 to 49 |  | 0 to 49 | 0 to 49 | 151 to 152 | 0 to 49 |  | 50 to 79 | 0 to 49 | 0 to 49 |  |  |  |  |  | 
OCC(Nc1ncnc2scc(Cl)c12)c1ccccc1 (centres unmarked) [Compound 30] | 0 to 49 | 0 to 49 | 0 to 49 | 0 to 49 | 120 |  |  | 0 to 49 |  | 0 to 49 | *** (*** is 80-100 percent control of disease) | *** (*** is 80-100 percent control of disease) | *** (*** is 80-100 percent control of disease) |  |  | 
O[C@@H](CNc1ncnc2scc(Cl)c12)c1ccccc1 [Compound 32] | 0 to 49 | 0 to 49 | 0 to 49 | 0 to 49 | 111 to 112 | 80 to 100 | 0 to 49 | 0 to 49 | 80 to 100 | 0 to 49 |  |  |  |  |  | 
CC(Nc1ncnc2scc(Cl)c12)c1nc2ccccc2s1 (centres unmarked) [Compound 41] | 80 to 100 | 80 to 100 | 50 to 79 | 80 to 100 |  | 80 to 100 | 80 to 100 | 80 to 100 | 80 to 100 | 0 to 49 |  |  |  |  |  | 
CC(Nc1ncnc2scc(Cl)c12)c1ccc(OCC(F)(F)F)nc1 (centres unmarked) [Compound 38] | 80 to 100 | 80 to 100 | 0 to 49 | 50 to 79 |  | 80 to 100 | 80 to 100 | 50 to 79 | 80 to 100 | 0 to 49 |  |  |  |  |  | 
CC(Nc1ncnc2scc(Cl)c12)c1ccc(OCl)nc1 (centres unmarked) [Compound 29] | 80 to 100 |  |  | 80 to 100 |  | 80 to 100 | 80 to 100 |  | 80 to 100 | 0 to 49 |  |  |  | 80 to 100 | 0 to 49 | 50 to 79
CC(COc1ccccn1)Nc1ncnc2scc(Cl)c12 (centres unmarked) [Compound 37, 5-(chlorothieno[2,3-d]pyrimidin-4-yl)-[1-methyl-2-(pyridin-2-yloxy)ethyl]amine] | 0 to 49 | 50 to 79 | 0 to 49 | 80 to 100 |  | 80 to 100 | 80 to 100 | 0 to 49 | 80 to 100 | 0 to 49 |  |  |  |  |  | 
CC(Nc1ncnc2scc(Cl)c12)c1ccc(OCc2ccccc2)cn1 (centres unmarked) [Compound 35] | 50 to 79 | 0 to 49 | 0 to 49 | 50 to 79 |  | 80 to 100 | 50 to 79 | 50 to 79 | 80 to 100 | 80 to 100 |  |  |  |  |  | 
CC(Nc1ncnc2scc(Cl)c12)c1cc[nH]c1 (centres unmarked) [Compound 15] | 0 to 49 | 0 to 49 | 0 to 49 | 0 to 49 |  | 50 to 79 | 0 to 49 | 0 to 49 | 80 to 100 | 0 to 49 |  |  |  |  |  | 
CC(C)c1ccc(C(C)Nc2ncnc3scc(Cl)c23)nc1 (centres unmarked) [Compound 34] | 0 to 49 | 80 to 100 | 0 to 49 | 80 to 100 |  | 80 to 100 | 80 to 100 | 50 to 79 | 80 to 100 | 50 to 79 |  |  |  |  |  | 
Clc1csc2ncnc(C3Cc4ccccc4C3)c12 [Compound 17] | 0 to 49 | 0 to 49 | 50 to 79 | 0 to 49 |  | 0 to 49 | 0 to 49 | 0 to 49 | 0 to 49 | 0 to 49 |  |  |  |  |  | 
CSc1ccc(C(C)Nc2ncnc3scc(Cl)c23)cc1 (centres unmarked) [Compound 42] | 0 to 49 | 50 to 79 | 0 to 49 | 50 to 79 |  | 80 to 100 | 80 to 100 | 80 to 100 | 80 to 100 | 0 to 49 |  |  |  |  |  | 
CC(Nc1ncnc2scc(Cl)c12)c1cccn1C (centres unmarked) [Compound 13] | 0 to 49 | 0 to 49 | 0 to 49 | 0 to 49 |  | 50 to 79 | 0 to 49 | 0 to 49 | 0 to 49 | 0 to 49 |  |  |  |  |  | 
COc1ccc(C(C)Nc2ncnc3scc(Br)c23)cn1 (centres unmarked) [Compound 45, (5-Bromothieno[2,3-d]pyrimidin-4-yl)-[1-(2-methoxypyridin-5-yl)ethyl]amine] | 80 to 100 | 80 to 100 | 0 to 49 | 50 to 79 |  | 80 to 100 | 80 to 100 | 50 to 79 | 80 to 100 | 0 to 49 |  |  |  |  |  | 
